Data taken from ChEMBL document CHEMBL1201862, “PubChem BioAssay data set” (2004).
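Grown in 96-well plates, cells were treated for 48 hours with each compound at five concentrations. Insufficient inhibition: endpoint recorded as highest concentration tested. GI50: concentration for 50% inhibition of growth.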 Active and inactive are the calls of the source. No stated cut-off is given here; in the data, active = GI50 up to about 1.1 µM and inactive = higher.

Tests used:
Experiment in all cases: growth of human tumour cells (NCI), 48 h
TK-10 = test system: TK-10
HT-29 = test system: HT-29
NCI-H226 = test system: NCI-H226
M14 = test system: M14
EKVX = test system: EKVX
SK-MEL-5 = test system: SK-MEL-5
SNB-75 = test system: SNB-75
OVCAR-5 = test system: OVCAR-5
HCC 2998 = test system: HCC 2998
OVCAR-8 = test system: OVCAR-8
NCI-H522 = test system: NCI-H522
KM12 = test system: KM12
NCI-H460 = test system: NCI-H460
786-0 = test system: 786-0
UACC-62 = test system: UACC-62

Measured: GI50

Cc1cccc(-c2cc(=O)c3cc(C)c(C)c(C(=O)O)c3o2)c1
inactive: TK-10 > 100 µM | HT-29 > 100 µM | NCI-H226 > 100 µM | M14 > 100 µM | EKVX > 100 µM | SK-MEL-5 > 100 µM | SNB-75 > 100 µM | OVCAR-5 > 100 µM | HCC 2998 > 100 µM | OVCAR-8 > 100 µM | NCI-H522 > 100 µM | KM12 > 100 µM | NCI-H460 > 100 µM | 786-0 > 100 µM | UACC-62 > 100 µM

CC1=C(C(=O)Nc2ccccc2C)C(c2ccccc2C)C(C(=O)Nc2ccccc2C)=C(C)N1
inactive: TK-10 28.8 µM | HT-29 20.3 µM | NCI-H226 21.5 µM | EKVX 20.7 µM | SNB-75 22.4 µM | OVCAR-5 23.3 µM | HCC 2998 18.5 µM | OVCAR-8 19.1 µM | NCI-H522 14.8 µM | KM12 18.4 µM | NCI-H460 22.6 µM | 786-0 17.6 µM

O=C(c1ccccc1)C1OC12C(=O)Nc1c(Cl)cc(Cl)cc12 (configuration not stated)
inactive: TK-10 > 94.4 µM | HT-29 33.6 µM | NCI-H226 5.6 µM | M14 31.5 µM | EKVX 57.8 µM | SK-MEL-5 > 74.3 µM | SNB-75 7.87 µM | OVCAR-5 > 100 µM | HCC 2998 > 92.3 µM | OVCAR-8 17 µM | NCI-H522 17.5 µM | KM12 > 100 µM | NCI-H460 30.3 µM | 786-0 16.3 µM | UACC-62 29.9 µM

Cn1cc(C(=O)C[n+]2ccccc2)c2ccccc21
inactive: TK-10 > 100 µM | HT-29 48.5 µM | NCI-H226 12.5 µM | M14 > 100 µM | EKVX 11.9 µM | SK-MEL-5 > 100 µM | SNB-75 69.2 µM | HCC 2998 > 100 µM | OVCAR-8 58.6 µM | NCI-H522 56 µM | KM12 50.2 µM | NCI-H460 > 100 µM | 786-0 > 100 µM | UACC-62 > 100 µM

C=C(C[N+](C)(C)C)N/N=C/c1oc(-c2ccc(OC)c(OC)c2)c(-c2ccc(OC)c(OC)c2)c1[N+](=O)[O-]
inactive: TK-10 22.4 µM | HT-29 16.9 µM | NCI-H226 27.3 µM | M14 22.1 µM | EKVX > 100 µM | SK-MEL-5 16.4 µM | SNB-75 19.4 µM | OVCAR-5 19.1 µM | HCC 2998 19.3 µM | OVCAR-8 15.8 µM | NCI-H522 23.2 µM | KM12 17.1 µM | NCI-H460 18.5 µM | 786-0 17.6 µM | UACC-62 > 10 µM

COC(=O)C1C(C(=O)OC)C2C(=O)C3C(C(=O)OC)C(C(=O)OC)C3C(=O)C12 (configuration not stated)
inactive: TK-10 > 100 µM | HT-29 > 100 µM | NCI-H226 > 100 µM | EKVX > 100 µM | OVCAR-5 > 100 µM | HCC 2998 > 100 µM | OVCAR-8 > 100 µM | NCI-H522 > 100 µM | KM12 > 100 µM | NCI-H460 > 100 µM | 786-0 > 100 µM

Cc1ccc(S(=O)(=O)Nc2cccc(C)c2C)cc1
inactive: TK-10 65.3 µM | HT-29 74.1 µM | NCI-H226 56.4 µM | M14 37.9 µM | EKVX 73.5 µM | SK-MEL-5 31.2 µM | SNB-75 22.5 µM | OVCAR-5 57.7 µM | HCC 2998 > 100 µM | OVCAR-8 72.4 µM | KM12 52.7 µM | NCI-H460 46.6 µM | 786-0 > 100 µM | UACC-62 66.1 µM

O=C1NC(=S)NC(=O)C1=Cc1ccc[nH]1
inactive: TK-10 17.4 µM | HT-29 4.38 µM | NCI-H226 14.5 µM | M14 21 µM | EKVX 24 µM | SK-MEL-5 26.5 µM | SNB-75 18 µM | OVCAR-5 23.2 µM | HCC 2998 11.8 µM | OVCAR-8 4.71 µM | NCI-H522 1.87 µM | KM12 3.48 µM | NCI-H460 8.11 µM | 786-0 10.6 µM | UACC-62 16.7 µM

C[N+]1=c2c3cccc4cccc(c(=O)n2CCC1)c43
inactive: TK-10 14.6 µM | HT-29 20.1 µM | NCI-H226 18.4 µM | M14 17.2 µM | EKVX 24.9 µM | SK-MEL-5 17.9 µM | SNB-75 25.1 µM | OVCAR-5 17.8 µM | OVCAR-8 17.7 µM | NCI-H522 15.8 µM | KM12 31 µM | NCI-H460 18.2 µM | 786-0 35.9 µM | UACC-62 18.7 µM

Oc1c(Cl)c2nccnc2c2ccccc12
inactive: TK-10 > 100 µM | HT-29 > 100 µM | NCI-H226 > 100 µM | M14 > 100 µM | EKVX > 100 µM | SK-MEL-5 > 100 µM | SNB-75 > 100 µM | OVCAR-5 > 100 µM | HCC 2998 > 100 µM | OVCAR-8 > 100 µM | NCI-H522 > 100 µM | KM12 > 100 µM | NCI-H460 > 100 µM | 786-0 > 100 µM | UACC-62 > 100 µM

COC(=O)CCC1=NOC(CC2CC(CCC(=O)OC)=NO2)C1 (configuration not stated)
inactive: TK-10 > 100 µM | HT-29 > 100 µM | NCI-H226 > 100 µM | M14 > 100 µM | EKVX > 100 µM | SK-MEL-5 > 100 µM | SNB-75 > 100 µM | OVCAR-5 > 100 µM | HCC 2998 > 100 µM | OVCAR-8 > 100 µM | NCI-H522 > 100 µM | KM12 > 100 µM | NCI-H460 > 100 µM | 786-0 > 100 µM | UACC-62 > 100 µM

O=C1NC(=O)c2c1n(Cc1ccccc1)c(=O)n2Cc1ccccc1
inactive: TK-10 96.6 µM | HT-29 > 100 µM | NCI-H226 > 100 µM | M14 > 100 µM | EKVX > 100 µM | SK-MEL-5 > 100 µM | SNB-75 > 100 µM | OVCAR-5 > 100 µM | HCC 2998 > 100 µM | OVCAR-8 > 100 µM | NCI-H522 > 100 µM | KM12 > 100 µM | NCI-H460 86.7 µM | 786-0 > 100 µM | UACC-62 84.3 µM

N#C[C@]12CC3(CC[C@H]1CC1(C2)OCCO1)OCCO3
inactive: TK-10 > 100 µM | NCI-H226 > 100 µM | M14 > 100 µM | SK-MEL-5 > 100 µM | SNB-75 > 100 µM | HCC 2998 > 100 µM | OVCAR-8 > 100 µM | NCI-H522 > 100 µM | KM12 > 100 µM | NCI-H460 > 100 µM | 786-0 > 100 µM | UACC-62 > 100 µM

Cc1noc2c1C(=O)CCC2
inactive: TK-10 > 100 µM | HT-29 > 100 µM | NCI-H226 > 100 µM | M14 > 100 µM | EKVX > 100 µM | SNB-75 > 100 µM | OVCAR-5 > 100 µM | OVCAR-8 > 100 µM | NCI-H522 > 100 µM | 786-0 > 100 µM | UACC-62 > 100 µM

NC1C2(CCCCCC2)NC(=O)C12CCCCCC2 (configuration not stated)
inactive: TK-10 > 100 µM | HT-29 > 100 µM | M14 > 100 µM | EKVX > 100 µM | SK-MEL-5 > 100 µM | SNB-75 > 100 µM | OVCAR-5 > 100 µM | OVCAR-8 > 100 µM | NCI-H522 > 100 µM | KM12 > 100 µM | NCI-H460 > 100 µM | 786-0 > 100 µM | UACC-62 > 100 µM

CCOC(=O)c1[nH]c(CN(C)Cc2[nH]c(C(=O)OCC)c(C)c2C(=O)OCc2ccccc2)c(C(=O)OCc2ccccc2)c1C
inactive: TK-10 16.7 µM | HT-29 2.77 µM | NCI-H226 12.7 µM | M14 4.99 µM | EKVX 12.9 µM | SK-MEL-5 6.44 µM | SNB-75 3.3 µM | OVCAR-5 6.81 µM | HCC 2998 14.4 µM | OVCAR-8 24 µM | NCI-H522 6.87 µM | KM12 7.45 µM | NCI-H460 5.58 µM | 786-0 11.2 µM | UACC-62 20.4 µM

C[N+]12c3ccccc3O[B-]1(c1ccccc1)Oc1ccccc12 (configuration not stated)
inactive: TK-10 23.5 µM | HT-29 73.5 µM | NCI-H226 32.8 µM | M14 15 µM | EKVX 84.5 µM | SK-MEL-5 36.2 µM | SNB-75 19.9 µM | OVCAR-5 77.4 µM | OVCAR-8 28.6 µM | NCI-H522 15.3 µM | KM12 25.2 µM | 786-0 35.9 µM | UACC-62 37.4 µM

COc1ccc2nc3cc(Cl)ccc3c(SCC(=O)Nc3ccccc3-c3ccccc3NC(=O)CSc3c4ccc(Cl)cc4nc4ccc(OC)cc34)c2c1
inactive: TK-10 > 100 µM | HT-29 > 100 µM | NCI-H226 > 100 µM | M14 > 100 µM | EKVX > 100 µM | SK-MEL-5 > 100 µM | SNB-75 > 100 µM | OVCAR-5 > 100 µM | HCC 2998 > 100 µM | OVCAR-8 > 100 µM | NCI-H522 > 100 µM | KM12 > 100 µM | NCI-H460 > 100 µM | 786-0 > 100 µM | UACC-62 > 100 µM

COC(=O)c1c(O)ccc(O)c1C(C(C)=O)C(C)=O
inactive: TK-10 > 100 µM | HT-29 > 100 µM | M14 > 100 µM | EKVX > 100 µM | SK-MEL-5 > 100 µM | SNB-75 > 100 µM | HCC 2998 > 100 µM | OVCAR-8 > 100 µM | NCI-H522 45.9 µM | KM12 > 100 µM | NCI-H460 > 100 µM | 786-0 > 100 µM | UACC-62 96.6 µM
